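The compound was tested at five concentrations on cells cultured in 96-well plates, with a 48-hour exposure period. GI50 = concentration required for 50% inhibition of growth. TGI is the concentration that stops growth completely.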
Assays:
Assay in all cases: DTP human tumour cell line panel, 48 h
786-0 renal = tested on: 786-0 renal
A498 renal = tested on: A498 renal
A549 NSCLC = tested on: A549 NSCLC
ACHN renal = tested on: ACHN renal
BT-549 breast = tested on: BT-549 breast
CAKI-1 renal = tested on: CAKI-1 renal
CCRF-CEM leukemia = tested on: CCRF-CEM leukemia
COLO 205 colon = tested on: COLO 205 colon
DU-145 prostate = tested on: DU-145 prostate
HCC-2998 colon = tested on: HCC-2998 colon
HCT-116 colon = tested on: HCT-116 colon
HCT-15 colon = tested on: HCT-15 colon
HL-60(TB) leukemia = tested on: HL-60(TB) leukemia
HOP-62 NSCLC = tested on: HOP-62 NSCLC
HOP-92 NSCLC = tested on: HOP-92 NSCLC
HS 578T breast = tested on: HS 578T breast
HT29 colon = tested on: HT29 colon
IGROV1 ovarian = tested on: IGROV1 ovarian
K-562 leukemia = tested on: K-562 leukemia
KM12 colon = tested on: KM12 colon
M14 melanoma = tested on: M14 melanoma
MALME-3M melanoma = tested on: MALME-3M melanoma
MDA-MB-231 breast = tested on: MDA-MB-231 breast
MDA-MB-435 = tested on: MDA-MB-435
MOLT-4 leukemia = tested on: MOLT-4 leukemia
NCI-H226 lung = tested on: NCI-H226 lung
NCI-H23 lung = tested on: NCI-H23 lung
NCI-H460 lung = tested on: NCI-H460 lung
NCI-H522 lung = tested on: NCI-H522 lung
NCI/ADR-RES ovarian = tested on: NCI/ADR-RES ovarian
OVCAR-3 ovarian = tested on: OVCAR-3 ovarian
OVCAR-4 ovarian = tested on: OVCAR-4 ovarian
OVCAR-5 ovarian = tested on: OVCAR-5 ovarian
OVCAR-8 ovarian = tested on: OVCAR-8 ovarian
PC-3 prostate = tested on: PC-3 prostate
RPMI-8226 leukemia = tested on: RPMI-8226 leukemia
RXF 393 renal = tested on: RXF 393 renal
SF-268 CNS = tested on: SF-268 CNS
SF-295 CNS = tested on: SF-295 CNS
SF-539 CNS = tested on: SF-539 CNS
SK-MEL-2 melanoma = tested on: SK-MEL-2 melanoma
SK-MEL-28 melanoma = tested on: SK-MEL-28 melanoma
SK-MEL-5 melanoma = tested on: SK-MEL-5 melanoma
SK-OV-3 ovarian = tested on: SK-OV-3 ovarian
SN12C renal = tested on: SN12C renal
SNB-19 CNS = tested on: SNB-19 CNS
SNB-75 CNS = tested on: SNB-75 CNS
SR leukemia = tested on: SR leukemia
SW-620 colon = tested on: SW-620 colon
TK-10 renal = tested on: TK-10 renal
UACC-257 melanoma = tested on: UACC-257 melanoma
UACC-62 melanoma = tested on: UACC-62 melanoma
UO-31 renal = tested on: UO-31 renal
EKVX NSCLC = tested on: EKVX NSCLC
LOX IMVI melanoma = tested on: LOX IMVI melanoma
MCF7 breast = tested on: MCF7 breast
U251 CNS = tested on: U251 CNS

## CC(=O)OCCC/C(=C\c1ccc2ccccc2c1)[N+](=O)[O-]
786-0 renal
  GI50: 1.81 µM
  TGI: 3.35 µM
A498 renal
  GI50: 1.04 µM
  TGI: 2.39 µM
A549 NSCLC
  GI50: 3.41 µM
  TGI: 31.2 µM
ACHN renal
  GI50: 1.89 µM
  TGI: 3.68 µM
BT-549 breast
  GI50: 1.72 µM
  TGI: 3.42 µM
CAKI-1 renal
  GI50: 1.5 µM
  TGI: 3.28 µM
CCRF-CEM leukemia
  GI50: 2.19 µM
  TGI: 7.88 µM
COLO 205 colon
  GI50: 1.57 µM
  TGI: 3.43 µM
DU-145 prostate
  GI50: 1.65 µM
  TGI: 3.4 µM
HCC-2998 colon
  GI50: 1.73 µM
  TGI: 3.32 µM
HCT-116 colon
  GI50: 1.61 µM
  TGI: 3.3 µM
HCT-15 colon
  GI50: 1.61 µM
  TGI: 3.42 µM
HL-60(TB) leukemia
  GI50: > 100 µM
  TGI: > 100 µM
HOP-62 NSCLC
  GI50: 2 µM
  TGI: 4.09 µM
HOP-92 NSCLC
  GI50: 1.44 µM
  TGI: 3.17 µM
HS 578T breast
  GI50: 1.09 µM
  TGI: 5.19 µM
HT29 colon
  GI50: 2.3 µM
  TGI: 5.59 µM
IGROV1 ovarian
  GI50: 1.89 µM
  TGI: 3.98 µM
K-562 leukemia
  GI50: 2.01 µM
  TGI: > 100 µM
KM12 colon
  GI50: 1.59 µM
  TGI: 3.18 µM
M14 melanoma
  GI50: 1.58 µM
  TGI: 3.21 µM
MALME-3M melanoma
  GI50: 1.91 µM
  TGI: 4.9 µM
MDA-MB-231 breast
  GI50: 2.02 µM
  TGI: 4.59 µM
MDA-MB-435
  GI50: 1.53 µM
  TGI: 3.77 µM
MOLT-4 leukemia
  GI50: 4.87 µM
  TGI: > 100 µM
NCI-H226 lung
  GI50: 1.76 µM
  TGI: 4.16 µM
NCI-H23 lung
  GI50: 1.79 µM
  TGI: 4.65 µM
NCI-H460 lung
  GI50: 2.91 µM
  TGI: 8.62 µM
NCI-H522 lung
  GI50: 0.353 µM
  TGI: 1.77 µM
NCI/ADR-RES ovarian
  GI50: 2.69 µM
  TGI: 8.67 µM
OVCAR-3 ovarian
  GI50: 1.52 µM
  TGI: 3.08 µM
OVCAR-4 ovarian
  GI50: 1.76 µM
  TGI: 3.39 µM
OVCAR-5 ovarian
  GI50: 1.75 µM
  TGI: 3.42 µM
OVCAR-8 ovarian
  GI50: 2.06 µM
  TGI: 5.09 µM
PC-3 prostate
  GI50: 1.93 µM
  TGI: 4.24 µM
RPMI-8226 leukemia
  GI50: 1.55 µM
  TGI: 3.72 µM
RXF 393 renal
  GI50: 1.94 µM
  TGI: 4.1 µM
SF-268 CNS
  GI50: 1.67 µM
  TGI: 3.43 µM
SF-295 CNS
  GI50: 1.96 µM
  TGI: 4.55 µM
SF-539 CNS
  GI50: 1.76 µM
  TGI: 3.32 µM
SK-MEL-2 melanoma
  GI50: 1.71 µM
  TGI: 3.62 µM
SK-MEL-28 melanoma
  GI50: 1.26 µM
  TGI: 2.84 µM
SK-MEL-5 melanoma
  GI50: 1.72 µM
  TGI: 3.29 µM
SK-OV-3 ovarian
  GI50: 5.26 µM
  TGI: 18.5 µM
SN12C renal
  GI50: 1.54 µM
  TGI: 3.32 µM
SNB-19 CNS
  GI50: 1.77 µM
  TGI: 3.28 µM
SNB-75 CNS
  GI50: 1.45 µM
  TGI: 2.99 µM
SR leukemia
  GI50: 1.67 µM
  TGI: > 100 µM
SW-620 colon
  GI50: 1.44 µM
  TGI: 3.27 µM
TK-10 renal
  GI50: 1.58 µM
  TGI: 3.4 µM
UACC-257 melanoma
  GI50: 1.81 µM
  TGI: 3.54 µM
UACC-62 melanoma
  GI50: 1.47 µM
  TGI: 2.98 µM
UO-31 renal
  GI50: 1.16 µM
  TGI: 2.6 µM

## CC(=O)c1ccc2c(c1)oc(=O)n2CCN(C)C
786-0 renal
  TGI: > 100 µM
A498 renal
  TGI: > 100 µM
ACHN renal
  TGI: > 100 µM
BT-549 breast
  TGI: > 100 µM
CAKI-1 renal
  TGI: > 100 µM
CCRF-CEM leukemia
  TGI: > 100 µM
COLO 205 colon
  TGI: > 100 µM
EKVX NSCLC
  TGI: > 100 µM
HCT-116 colon
  TGI: > 100 µM
HCT-15 colon
  TGI: > 100 µM
HL-60(TB) leukemia
  TGI: > 100 µM
HOP-62 NSCLC
  TGI: > 100 µM
HS 578T breast
  TGI: > 100 µM
HT29 colon
  TGI: > 100 µM
IGROV1 ovarian
  TGI: > 100 µM
KM12 colon
  TGI: > 100 µM
LOX IMVI melanoma
  TGI: > 100 µM
M14 melanoma
  TGI: > 100 µM
MALME-3M melanoma
  TGI: > 100 µM
MCF7 breast
  TGI: > 100 µM
MDA-MB-231 breast
  TGI: > 100 µM
MDA-MB-435
  TGI: > 100 µM
MOLT-4 leukemia
  TGI: > 100 µM
NCI-H226 lung
  TGI: > 100 µM
NCI-H23 lung
  TGI: > 100 µM
NCI-H460 lung
  TGI: > 100 µM
NCI/ADR-RES ovarian
  TGI: > 100 µM
OVCAR-3 ovarian
  TGI: > 100 µM
OVCAR-5 ovarian
  TGI: > 100 µM
OVCAR-8 ovarian
  TGI: > 100 µM
PC-3 prostate
  TGI: > 100 µM
RXF 393 renal
  TGI: > 100 µM
SF-268 CNS
  TGI: > 100 µM
SF-295 CNS
  TGI: > 100 µM
SF-539 CNS
  TGI: > 100 µM
SK-MEL-2 melanoma
  TGI: > 100 µM
SK-MEL-28 melanoma
  TGI: > 100 µM
SK-OV-3 ovarian
  TGI: > 100 µM
SNB-75 CNS
  TGI: > 100 µM
SR leukemia
  TGI: > 100 µM
SW-620 colon
  TGI: > 100 µM
TK-10 renal
  TGI: > 100 µM
U251 CNS
  TGI: > 100 µM
UACC-257 melanoma
  TGI: > 100 µM
UACC-62 melanoma
  TGI: > 100 µM
